Source: patent publication US5198424A, “Functionally active selectin-derived peptides” (Board of Regents of the University of Oklahoma, priority 1992, dated 1993)
Where two headings read alike, the source gives them in different places. Ends that are not written are not given here.

What was measured:
[1] = molecular target: T1, GMP-140 (Homo sapiens, UniProt P16109); test: ELISA of binding of biotinylated monoclonal antibodies G1, G2, G3 to immobilized GMP-140 with soluble peptide; set-up: from tissue; host or cells: outdated human platelet packs (platelet lysate); conditions: peptide 1.5 mM; for remaining activity at 1500 µM: 2 h
T1 sequence (P16109 42-830): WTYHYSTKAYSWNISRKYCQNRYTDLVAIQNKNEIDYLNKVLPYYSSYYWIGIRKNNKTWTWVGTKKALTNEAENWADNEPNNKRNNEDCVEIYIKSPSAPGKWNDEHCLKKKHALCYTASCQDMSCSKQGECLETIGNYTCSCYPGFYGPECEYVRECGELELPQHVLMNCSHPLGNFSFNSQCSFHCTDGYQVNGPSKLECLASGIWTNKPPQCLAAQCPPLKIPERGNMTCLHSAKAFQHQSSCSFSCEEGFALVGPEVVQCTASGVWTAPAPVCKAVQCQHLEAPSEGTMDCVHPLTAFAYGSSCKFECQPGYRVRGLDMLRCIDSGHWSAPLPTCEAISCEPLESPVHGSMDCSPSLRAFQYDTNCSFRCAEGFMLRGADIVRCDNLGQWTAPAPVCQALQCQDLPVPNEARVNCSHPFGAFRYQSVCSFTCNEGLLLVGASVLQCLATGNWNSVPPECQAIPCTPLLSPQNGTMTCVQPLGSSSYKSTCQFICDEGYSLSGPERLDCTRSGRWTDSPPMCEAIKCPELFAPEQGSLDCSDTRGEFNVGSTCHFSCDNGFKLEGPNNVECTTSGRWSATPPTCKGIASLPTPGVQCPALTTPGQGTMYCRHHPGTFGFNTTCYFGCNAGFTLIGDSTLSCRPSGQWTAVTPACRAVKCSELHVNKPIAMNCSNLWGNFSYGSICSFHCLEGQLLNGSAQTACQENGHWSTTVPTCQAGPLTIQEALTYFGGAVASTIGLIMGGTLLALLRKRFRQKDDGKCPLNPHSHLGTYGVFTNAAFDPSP
Protocol: Based on competitive ELISAs with the purified protein, G1, G2, and G3 each recognize distinct or only partially overlapping epitopes. 1.5 mM peptide was added to biotinylated mAb at a concentration of 2.5 micrograms/ml, which were then added to the wells containing GMP-140, as described in example 1. Binding was measured by an ELISA with an avidin detection system.
The monoclonal antibodies were biotinylated as follows: to 0.5 ml of purified IgG antibody (1 mg/ml in PBS, pH 7.4) was added 50 μl of 3.2 mM N-hydroxysuccinimide biotin in dimethyl sulfoxide and 50 μl of 1 M NaHCO3. After a 2 hour incubation at room temperature in the dark, the reaction was stopped with 50 μl of 1 M NH4 Cl. The biotinylated antibody was then separated from other components by gel filtration on a PD-10 column equilibrated in PBS. The ELISA was performed as follows; all steps were performed at room temperature.
Biotinylated antibody (2.5 μg/ml) with or without 1.5 mM peptide was incubated with wells coated with GMP-140 as described in example 1. After a 2 hour incubation, the antibody was removed, the wells were washed, and 0.1 ml of horseradish peroxidase-conjugated stepavidin (Pierce), diluted 1:1000 in HBSS/HSA, was added for 30 min. The wells were then washed and 0.1 ml of peroxidase substrate (Pierce) was added for 15 min. The color reaction was read at 405 nm.

[2] = molecular target: T1, GMP-140; test: Neutrophil adhesion to purified GMP-140 immobilized on plastic wells (myeloperoxidase readout); assay type: cell-based; set-up: from tissue; host or cells: outdated human platelet packs (platelet lysate); conditions: for % Bound (neutrophils bound to immobilized GMP-140 in the presence of GMP-140-derived peptide): peptide 1.5 mM, cells bound with control C-terminal peptide 761-777 normalized to 100%
Source text: Peptides were screened for their ability to inhibit neutrophil adhesion to purified GMP-140 immobilized on plastic wells, using the assay described by Geng, et al., Nature 343, 757-760 (1990).
Human neutrophils are isolated from heparinized whole blood by density gradient centrifugation on Mono-Poly resolving media, Flow Laboratories. Neutrophil suspensions are greater than 98% pure and greater than 95% viable by trypan blue exclusion. For adhesion assays, neutrophils are suspended at a concentration of 2×10^6 cells/ml in Hanks' balanced salt solution containing 1.26 mM Ca^2+ and 0.81 mM Mg^2+ (HBSS, Gibco) with 5 mg/ml human serum albumin (HBSS/HSA). Adhesion assays are conducted in triplicate in 96-well microtiter plates, Corning, incubated at 4° C. overnight with 50 microliters of various protein solutions.
GMP-140 is plated at 5 micrograms/ml and the control proteins: human serum albumin (Alb), platelet glycoprotein IIb/IIIa (IIb), von Willebrand factor (vWF), fibrinogen (FIB), thrombomodulin (TM), gelatin (GEL) or human serum (HS), are added at 50 micrograms/ml. All wells are blocked for 2 h at 22° C. with 300 microliters HBSS containing 10 mg/ml HSA, then washed three times with HBSS containing 0.1% Tween-20 and once with HBSS. Cells (2×10^5 per well were added to the wells and incubated at 22° C. for 20 min. The wells were then filled with HBSS/HSA, sealed with acetate tape (Dynatech), and centrifuged inverted at 150 g for 5 min. After discarding nonadherent cells and supernates, the contents of each well are solubilized with 200 microliters 0.5% hexadecyltrimethylammonium bromide, Sigma, in 50 mM potassium phosphate, pH 6.0, and assayed for myeloperoxidase activity, Ley, et al., Blood 73, 1324-1330 (1989). The number of cells bound was derived from a standard curve of myeloperoxidase activity versus numbers of cells. Under all assay conditions, the cells released less than 5% of total myeloperoxidase and lactate dehydrogenase. Results are presented in Table I. 100% adhesion is that seen in the presence of the C-terminal peptide (amino acid residues 761-777 of GMP-140) as a negative control; this value is the same as controls in which neither peptide nor antibody is added to the cells. Inhibition is read as a lower percent adhesion, so that a value of 5% mean that 95% of the specific adhesion was inhibited.
Peptides from the lectin-like domain of GMP-140 were assayed for their ability to inhibit adhesion of neutrophils to immobilized GMP-140 in the assay described in example 1. Concentrations tested ranged from 0.1 mM to 1.5 mM.

[3] = mAb G1 2.5 micrograms/ml, read-out: % Binding of Biotinylated MAbs G1
[4] = mAb G2 2.5 micrograms/ml, read-out: % Binding of Biotinylated MAbs G2
[5] = mAb G3 2.5 micrograms/ml, read-out: % Binding of Biotinylated MAbs G3

Substance | % Bound (neutrophils bound to immobilized GMP-140 in the presence of GMP-140-derived peptide) [2] [%] | remaining activity at 1500 µM [1, 3] [%] | remaining activity at 1500 µM [1, 4] [%] | remaining activity at 1500 µM [1, 5] [%] | other results
AENWADNEPNNKRNNED [73-89] | 22 |  |  |  | % Binding of Biotinylated MAbs G1 ([1]; mAb G1 2.5 micrograms/ml): 95%; % Binding of Biotinylated MAbs G2 ([1]; mAb G2 2.5 micrograms/ml): 99%; % Binding of Biotinylated MAbs G3 ([1]; mAb G3 2.5 micrograms/ml): 94%
YTASCQDMS [LECTIN/EGF 118-126] |  | 92 | 92 | 104 | 
TWTWV [59-63] | 102 |  |  |  | 
KDDGKCPLNPHSHLGTY [C-TERMINUS 761-777, reference compound] | 100 | 100 | 100 | 100 | 
CQNRYTDLVAIQ [19-30] | 12 |  |  |  | % Binding of Biotinylated MAbs G3 ([1]; mAb G3 2.5 micrograms/ml): 54%
NKTWTWV [57-63] | 69 |  |  |  | 
CQNRYTDLVAIQNKNE [19-34] | 5 |  |  |  | % Binding of Biotinylated MAbs G1 ([1]; mAb G1 2.5 micrograms/ml): 23%; % Binding of Biotinylated MAbs G2 ([1]; mAb G2 2.5 micrograms/ml): 26%; % Binding of Biotinylated MAbs G3 ([1]; mAb G3 2.5 micrograms/ml): 24%
RKRFRQK [TRANSMEMBRANE 755-761, reference compound] |  | 100 | 119 | 104 | 
RKNNKT [54-59] | 86 |  |  |  | 
YTDLVAIQ [23-30] | 7 |  |  |  | 
RKNNKTW [54-60] | 63 |  |  |  | 
RKNNKTWTWVGTKKALTNE [54-72] | 15 |  |  |  | % Binding of Biotinylated MAbs G1 ([1]; mAb G1 2.5 micrograms/ml): 106%; % Binding of Biotinylated MAbs G2 ([1]; mAb G2 2.5 micrograms/ml): 125%; % Binding of Biotinylated MAbs G3 ([1]; mAb G3 2.5 micrograms/ml): 104%
VAIQNKNE [27-34] | 91 |  |  |  | 
LETIGNYT [EGF 134-141] |  | 97 | 104 | 109 | 
trypsin [reference compound] |  |  |  |  | adhesion of neutrophils to immobilized GMP-140 abolished ([2]; neutrophils treated with the protease): Greater than 70%
NRYTDLV [21-27] | 65 |  |  |  | 
LKKKHAL [LECTIN 110-116] |  | 98 | 100 | 108 | 
YTDLVAIQNKNE [23-34] | 30 |  |  |  | 
NNKTW [56-60] | 96 |  |  |  | 
CQDDGK [SECRETORY 720-721/762-765, reference compound] |  | 106 | 99 | 104 | 
